Measurements: US9133235B2, “Macrocyclic antagonists of the motilin receptor for treatment of gastrointestinal dysmotility disorders” (Ocera Therapeutics, Inc., priority 2006, dated 2015)
Read-outs that look alike come from different tables or passages of the source.

Assays:
[1] = Pharmacokinetic analysis in rat (i.v., s.c., p.o.); type: in vivo; conditions: for half-life: read-out: Elimination (t1/2, min)
Source text: I. Pharmacokinetic Analysis of Representative Compounds of the Invention
The pharmacokinetic behavior of compound of the invention can be ascertained by methods well known to those skilled in the art. (Wilkinson, G. R. “Pharmacokinetics: The Dynamics of Drug Absorption, Distribution, and Elimination” in Goodman & Gilman's The Pharmacological Basis of Therapeutics, Tenth Edition, Hardman, J. G.; Limbird, L. E., Eds., McGraw Hill, Columbus, Ohio, 2001, Chapter 1.) The following method was used to investigate the pharmacokinetic parameters (elimination half-life, total plasma clearance, etc.) for intravenous, subcutaneous and oral administration of compounds of the present invention.
Rats: male, Sprague-Dawley (˜250 g)
Rats/Treatment Group: 6 (2 subsets of 3 rats each, alternate bleeds)
Each sample of test compound was sent in solution in a formulation (such as with cyclodextrin) appropriate for dosing. It will be appreciated by one skilled in the art that appropriate modifications to this protocol can be made as required to adequately test the properties of the compound under analysis.
1. Intravenous (i.v.): 2 mg/kg
2. Subcutaneous(s.c): 2 mg/kg
Plasma Collection 1. Same protocol for all dosing groups 2. For each group, 2 subsets (A and B) of 3 rats/subset
At the time intervals indicated above, 0.7 mL of blood were collected from each animal. It is expected that this volume of blood will yield a sample of at least 0.3 mL of plasma. EDTA was used as an anti-coagulant for whole blood collection. Whole blood samples were chilled and immediately processed by centrifugation to obtain plasma.
Plasma samples were stored frozen (−70° C.) until analysis. Analytical detection of parent compound in plasma samples performed by LC-MS after an appropriate preparation protocol: extraction using solid phase extraction (SPE) cartridges (Oasis MCX, Oasis HLB) or liquid-liquid extraction.
Column: Atlantis dC18 from Waters 2.1×30 mm
A: 95% MeOH, 5% water, 0.1% TFA
B: 95% water, 5% MeOH, 0.1% TFA
The analyte was quantitated based upon a standard curve and the method validated with internal standards.

[2] = biological target: T1, CYP2C8 (Homo sapiens, UniProt P10632); experiment: Cytochrome P450 inhibition, CYP2C8; type: in vitro ADME; conditions: Supersomes; read-out: IC50 (μM) 2C8
T1 construct: purchased BD Gentest, Becton-Dickinson (Supersomes); host or cells: insect cells (microsomes)
T1 sequence (P10632 1-490): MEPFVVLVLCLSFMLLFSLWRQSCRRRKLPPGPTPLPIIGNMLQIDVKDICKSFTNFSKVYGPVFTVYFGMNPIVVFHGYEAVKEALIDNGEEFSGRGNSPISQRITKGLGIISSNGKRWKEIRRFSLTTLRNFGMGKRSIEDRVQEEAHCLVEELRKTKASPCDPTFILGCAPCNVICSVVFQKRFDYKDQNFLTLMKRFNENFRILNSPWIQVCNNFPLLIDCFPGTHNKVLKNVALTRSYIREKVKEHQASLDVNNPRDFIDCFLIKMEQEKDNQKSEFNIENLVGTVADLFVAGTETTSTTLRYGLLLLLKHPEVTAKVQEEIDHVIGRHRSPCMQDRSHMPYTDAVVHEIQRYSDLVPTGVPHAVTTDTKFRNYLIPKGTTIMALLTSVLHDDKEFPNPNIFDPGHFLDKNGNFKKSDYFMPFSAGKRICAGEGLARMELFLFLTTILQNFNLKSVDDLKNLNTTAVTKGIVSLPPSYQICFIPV
Source text: (§1) F. Assay for Cytochrome P450 Inhibition
(§2) Cytochrome P450 enzymes are implicated in the phase I metabolism of drugs. The majority of drug-drug interactions are metabolism-based and, moreover, these interactions typically involve inhibition of cytochrome P450s. Six CYP450 enzymes (CYP1A2, CYP2C8, CYP2C9, CYP2C19, CYP2D6 and CYP3A4) appear to be commonly responsible for the metabolism of most drugs and the associated drug-drug interactions. Assays to determine the binding of compounds of the invention to the various metabolically important isoforms of cytochrome P450 metabolizing enzymes are commercially available, for example NoAb BioDiscoveries (Mississaugua, ON, Canada) and Absorption Systems (Exton, Pa., USA). As well, a number of appropriate methods have been described or reviewed in the literature. (White, R. E. Ann. Rev. Pharmacol. Toxicol. 2000, 40, 133-157; Li, A. P. Drug. Disc. Today 2001, 6, 357-366; Turpeinen, M.; Korhonen, L. E. Tolonen, A.; et al. Eur. J. Pharm. Sci. 2006, 29, 130-138.)
(§3) The concentration of the inhibitor or test compound that inhibited metabolite formation by 50% (IC50) was calculated by non-linear regression analysis of the % inhibition vs. log concentration (M) curve.

[3] = biological target: T2, CYP2E1 (Homo sapiens, UniProt P05181); experiment: Cytochrome P450 inhibition, CYP2E1; type: in vitro ADME; conditions: Supersomes; read-out: IC50 (μM) 2E1
T2 construct: purchased BD Gentest, Becton-Dickinson (Supersomes); host or cells: insect cells (microsomes)
T2 sequence (P05181 whole entry): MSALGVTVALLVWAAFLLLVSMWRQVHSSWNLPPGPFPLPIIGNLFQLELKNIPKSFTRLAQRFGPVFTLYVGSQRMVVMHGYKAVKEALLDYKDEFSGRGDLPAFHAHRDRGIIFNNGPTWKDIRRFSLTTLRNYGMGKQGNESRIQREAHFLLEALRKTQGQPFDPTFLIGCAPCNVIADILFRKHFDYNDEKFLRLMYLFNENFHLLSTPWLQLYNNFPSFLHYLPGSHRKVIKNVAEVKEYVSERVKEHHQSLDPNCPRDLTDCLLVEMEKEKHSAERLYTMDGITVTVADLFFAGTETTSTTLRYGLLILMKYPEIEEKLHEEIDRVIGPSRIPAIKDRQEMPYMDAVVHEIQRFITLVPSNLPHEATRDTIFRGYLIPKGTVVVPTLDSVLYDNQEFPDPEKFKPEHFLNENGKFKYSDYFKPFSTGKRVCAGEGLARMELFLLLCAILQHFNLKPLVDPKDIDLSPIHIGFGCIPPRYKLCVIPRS
Source text: as §1, §2, §3

[4] = biological target: T3, CYP2C9 (Homo sapiens, UniProt P11712); experiment: Cytochrome P450 inhibition, CYP2C9; type: in vitro ADME; conditions: Supersomes; read-out: IC50 (μM) 2C9
T3 construct: purchased BD Gentest, Becton-Dickinson (Supersomes); host or cells: insect cells (microsomes)
T3 sequence (P11712 whole entry): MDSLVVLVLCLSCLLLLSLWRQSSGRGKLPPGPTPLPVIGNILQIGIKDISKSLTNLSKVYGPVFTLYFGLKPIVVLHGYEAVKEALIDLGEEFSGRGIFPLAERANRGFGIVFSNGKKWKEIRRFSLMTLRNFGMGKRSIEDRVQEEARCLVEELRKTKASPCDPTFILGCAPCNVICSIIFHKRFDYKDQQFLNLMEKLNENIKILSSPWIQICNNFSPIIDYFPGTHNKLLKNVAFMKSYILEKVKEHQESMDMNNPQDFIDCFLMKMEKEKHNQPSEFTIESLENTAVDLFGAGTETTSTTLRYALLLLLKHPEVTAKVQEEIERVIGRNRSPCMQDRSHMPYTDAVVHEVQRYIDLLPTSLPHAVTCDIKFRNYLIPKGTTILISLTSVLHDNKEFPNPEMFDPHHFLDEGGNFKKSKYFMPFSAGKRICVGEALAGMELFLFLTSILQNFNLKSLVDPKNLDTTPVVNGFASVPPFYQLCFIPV
Source text: as §1, §2, §3

[5] = biological target: T4, CYP3A4 (Homo sapiens, UniProt P08684); experiment: Cytochrome P450 inhibition, CYP3A4; type: in vitro ADME; conditions: Supersomes
T4 construct: purchased BD Gentest, Becton-Dickinson (Supersomes); host or cells: insect cells (microsomes)
T4 sequence (P08684 whole entry): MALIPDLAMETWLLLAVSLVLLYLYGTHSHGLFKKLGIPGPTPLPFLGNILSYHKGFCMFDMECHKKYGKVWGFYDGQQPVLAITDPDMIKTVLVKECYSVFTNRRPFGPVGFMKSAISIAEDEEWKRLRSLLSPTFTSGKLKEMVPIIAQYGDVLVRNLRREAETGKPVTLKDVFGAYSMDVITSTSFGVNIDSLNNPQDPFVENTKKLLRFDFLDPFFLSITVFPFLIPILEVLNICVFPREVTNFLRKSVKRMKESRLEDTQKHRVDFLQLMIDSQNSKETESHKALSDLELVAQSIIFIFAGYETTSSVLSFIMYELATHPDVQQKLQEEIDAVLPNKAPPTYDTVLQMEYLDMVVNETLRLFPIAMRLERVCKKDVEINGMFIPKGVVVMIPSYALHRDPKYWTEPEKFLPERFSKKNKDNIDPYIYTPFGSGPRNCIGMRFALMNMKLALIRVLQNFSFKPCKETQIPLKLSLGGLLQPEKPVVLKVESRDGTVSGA
Source text: as §1, §2, §3

[6] = substrate BFC, read-out: IC50 (μM) 3A4 (BFC)
[7] = substrate BQ, read-out: IC50 (μM) 3A4 (BQ)

Clearance ([1]; i.v.) [mL/min/kg]	Elimination (t1/2, min) ([1]; i.v., typical dose 2 mg/kg) [min]	Clearance ([1]; s.c.) [mL/min/kg]	Elimination (t1/2, min) ([1]; s.c., typical dose 2 mg/kg) [min]	IC50 [2] [µM]	IC50 [3] [µM]	IC50 [4] [µM]	Elimination (t1/2, min) ([1]; p.o., typical dose 8 mg/kg, without cyclodextrin) [min]	Bioavailability (oral) ([1]; p.o., without cyclodextrin) [%]	IC50 [5, 6] [µM]	IC50 [5, 7] [µM]	Clearance ([1]; male, Sprague-Dawley, plasma, iv, 1.9 mg/kg, i.v., read-out: Clearance) [mL/min/kg]	half-life ([1]; male, Sprague-Dawley, plasma, iv, typical dose 2 mg/kg) [min]	bioavailability ([1]; male, Sprague-Dawley, plasma, po, 8 mg/kg, in the presence of 10% beta-cyclodextrin) [%]	half-life ([1]; male, Sprague-Dawley, plasma, po, typical dose 8 mg/kg, in the presence of 10% beta-cyclodextrin) [min]	half-life ([1]; male, Sprague-Dawley, plasma, sc, typical dose 2 mg/kg) [min]	SMILES
57	102	79	146	–	–	–	–	–	–	–	–	–	–	–	–	CC(C)[C@H]1NC(=O)[C@@H](Cc2cccc(C(F)(F)F)c2)NCCOc2ccccc2CCCNC(=O)[C@H](CN(C)C)NC1=O [Compound 502]
33	139	–	–	> 100	> 100	26.9	70 to 125	6	2.37	10.4	–	–	–	–	–	CCC[C@@H]1NC(=O)[C@@H](C(C)C)NC(=O)[C@@H](Cc2cccc(F)c2)N[C@@H](C)COc2ccccc2CCCNC1=O [Compound 551]
–	–	39	–	–	–	–	–	–	–	–	45	24	10	307	103	CCC[C@@H]1NC(=O)[C@@H](C(C)C)NC(=O)[C@@H](Cc2ccc(O)c(Cl)c2)N[C@@H](C)COc2ccccc2CCCNC1=O [Compound 552]
–	–	–	–	> 100	> 100	44.5	–	–	0.0192	3.48	–	–	–	–	–	CCC[C@@H]1NC(=O)[C@@H](C(C)C)NC(=O)[C@@H](Cc2ccc(O)c(C(C)(C)C)c2)NCCOc2ccccc2CCCNC1=O [Compound 553]
